According to patent US12138383B2, “Heating unit for use in a drug delivery device” (ALEXZA PHARMACEUTICALS, INC., priority 2007, dated 2024):

Tests used:
[1] = Aerosol purity of condensation aerosol vaporized from drug-coated substrate in substrate screening apparatus (HPLC of filter extract); format: physicochemical; details: heat-oxidized perforated 316 stainless steel
Excerpt: The substrate screening apparatus 400 is made of a machined plastic (polyoxymethylene, DELRIN® Acetal Resin, DuPont, Wilmington, DE) block 402 with a 2 cm^2 cross-sectional area for mounting a substrate 412. Block 402 includes a first airway 404 extending from first inlet 414 to outlet 422. Block 402 also include a second airway 406 extending from second inlet 416 to substrate 412, where it typically joins the first airway. The substrate 412 is mounted in the substrate screening apparatus 400 across two electrodes 420. A first air flow 414 is established in first airway 404 and a second air flow 416 is established in second airway 406 such that the second air flow 416 passes from the second airway 406 to first airway 404 through holes in the substrate 412. While providing air flows 414 and 416, the substrate 412 is heated, typically by discharging a capacitor (not shown) across the substrate 412. In a one embodiment, the flow of air passing through holes in the substrate 412 is in a direction orthogonal to that of air flow 414. Substrate 412 is coated with a drug composition film. The substrate 412 is heated to vaporized all or a portion of the drug composition. The vaporized drug subsequently cools and condenses to form a condensation aerosol that is carried to the outlet by air flow 414, joined by air flow 416). Accordingly, the condensation aerosol is emitted from the outlet 422.
The test substrates were then coated with a drug composition. The drug was typically dissolved in a volatile organic solvent (e.g., dichloromethane/methanol mixture or acetone or other suitable organic solvent) and then spray-coated onto the test substrates using an automated spray coater. Coating parameters, such as the drug concentration in the coating solution, solution flow rate, were selected to obtain a uniform drug coating of the desired coating density (i.e., mass/area).
Total air flow through the substrate screening apparatus was set by providing air flows 414 and 416 at a desired ratio. (As used herein, “across” air flow refers to air flow 414 and “bottom” air flow refers to air flow 416.) Brass electrodes 420 attached to the substrate screening apparatus 400 were used to clamp the substrate 412 in place and provide electrical connections. For most experiments, a 1-Farad capacitor was used as the energy source. The capacitor was typically charged to 11-14 volts, depending on the desired substrate temperature. A high current relay was used to connect the circuit and discharge the capacitor across the substrate to induce heating and vaporization of the drug.
FIG. 5 is a schematic of another embodiment of a substrate screening apparatus 500 that was used to direct air flow through the holes of coated polyimide film (KAPTON® polyimide film) substrates (see FIGS. 2A and 2B). Substrate screening apparatus 500 is similar in configuration and operation to substrate screening apparatus 400, with the exception that substrate screening apparatus 500 includes two electrodes 502 on the same side of the screening apparatus 500, whereas substrate screening apparatus 400 includes two electrodes 420 on opposite sides of the screening apparatus 400. In the examples using polyimide film substrates described below, a polyimide film substrate coated with a drug composition was placed in substrate screening apparatus 500 across electrodes 502. A computer-controlled power supply was connected to the electrodes. The power supply was typically capable of heating the polyimide film substrate to the target temperature within 300 milliseconds, and the substrate was kept at the target temperature for a duration of 1 second.
To determine aerosol purity and emitted dose, a 2 μm Teflon filter (ZEFLUOR PTFE filters, available from Zefon International, Inc., Ocala, FL) was placed immediately downstream from the screening apparatus during aerosol generation. […]

[2] = Aerosol particle size distribution by Anderson Cascade Impactor; format: physicochemical; details: heat-oxidized perforated 316 stainless steel; for Average MMAD (μm): 28.3 liters/minute; for GSD / MMAD (μm): approx. 0.07 mg/cm^2, 28.3 liters/minute
Excerpt: An Anderson Cascade Impactor (ACI), an inertial impaction size separating device, was used to determine the particle size distribution of the aerosol. The ACI consists of several stages, with each successive stage having a smaller size cutoff. By extracting and determining the mass of drug deposited at each stage, it is possible to estimate the particle size distribution of the aerosol. The ACI was placed immediately downstream from the screening apparatus. Again, the airway and substrate were extracted to determine the mass balance for each actuation of the device.

aerosol purity ([1]; 0.07 mg/cm^2, 20 liters/minute, as little as 5% of air flow through the substrate): 98% | Emitted Aerosol Purity (%) ([1]; 20 liters/minute, across:bottom 0:100): 98.5% | aerosol purity ([1]; 20 liters/minute, across:bottom 0:100, coating density 0.08 mg/cm^2): 99.3 ± 0.1 | Mean Aerosol Purity (%) ([1]; 20 liters/minute, across:bottom 0:100, coating density 0.10 mg/cm^2): 98.8% | Mean Aerosol Purity (%) ([1]; 20 liters/minute, across:bottom 0:100, coating density 0.14 mg/cm^2): 98.8% | aerosol purity ([1]; 20 liters/minute, across:bottom 0:100, coating density 0.26 mg/cm^2): 98.9 ± 0.1 | aerosol purity ([1]; 20 liters/minute, across:bottom 0:100, coating density 0.58 mg/cm^2): 98.7 ± 0.3 | Emitted Aerosol Purity (%) ([1]; 20 liters/minute, across:bottom 50:50): 98.4% | Mean Aerosol Purity (%) ([1]; 20 liters/minute, across:bottom 50:50, coating density 0.10 mg/cm^2): 98.8% | Mean Aerosol Purity (%) ([1]; 20 liters/minute, across:bottom 50:50, coating density 0.14 mg/cm^2): 98.9% | aerosol purity ([1]; 20 liters/minute, across:bottom 90:10, coating density 0.08 mg/cm^2): 99.2 ± 0.1 | aerosol purity ([1]; 20 liters/minute, across:bottom 90:10, coating density 0.26 mg/cm^2): 98.6 ± 0.1 | aerosol purity ([1]; 20 liters/minute, across:bottom 90:10, coating density 0.58 mg/cm^2): 98.4 ± 0.3 | Emitted Aerosol Purity (%) ([1]; 20 liters/minute, across:bottom 100:0): 96.4% | aerosol purity ([1]; 20 liters/minute, across:bottom 100:0, coating density 0.08 mg/cm^2): 95.8 ± 0.6 | Mean Aerosol Purity (%) ([1]; 20 liters/minute, across:bottom 100:0, coating density 0.10 mg/cm^2): 95.7% | Mean Aerosol Purity (%) ([1]; 20 liters/minute, across:bottom 100:0, coating density 0.14 mg/cm^2): 94.8% | aerosol purity ([1]; 20 liters/minute, across:bottom 100:0, coating density 0.26 mg/cm^2): 94.8 ± 0.2 | aerosol purity ([1]; 20 liters/minute, across:bottom 100:0, coating density 0.58 mg/cm^2): 90.7 ± 0.4 | Average MMAD (μm) ([2]; coating density 0.08 mg/cm^2, across:bottom 90:10): 2.2 μm | Average MMAD (μm) ([2]; coating density 0.26 mg/cm^2, across:bottom 90:10): 1.6 μm | Average MMAD (μm) ([2]; coating density 0.58 mg/cm^2, across:bottom 0:100): 0.9 μm | Average MMAD (μm) ([2]; coating density 0.58 mg/cm^2, across:bottom 90:10): 1.9 μm | Average MMAD (μm) ([2]; coating density 0.58 mg/cm^2, across:bottom 100:0): 1.7 μm | GSD ([2]; across:bottom 0:100): 2.4 ± 0.1 | MMAD (μm) ([2]; across:bottom 0:100): 0.4 ± 0.0 μm | GSD ([2]; across:bottom 90:10): 2.0 ± 0.1 | MMAD (μm) ([2]; across:bottom 90:10): 2.7 ± 0.1 μm | GSD ([2]; across:bottom 100:0): 4.0 ± 0.5 | MMAD (μm) ([2]; across:bottom 100:0): 3.6 ± 0.5 μm
Compound: CCCCNc1cc(C(=O)O)cc(S(N)(=O)=O)c1Oc1ccccc1 [Bumetanide, bumetanide]
